These results are taken from PubChem BioAssay (NCI).

SMILES strings stand for the structures. Values joined by “and” are separate entries in the source; they are usually repeats but may differ in a detail not shown here. Identical values can stand only once.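 Dose response: 5 concentrations. Exposure: 48 h. Format: 96-well plates. Endpoint: linear interpolation; highest concentration if not reached. GI50 is the concentration that inhibits growth by half. The concentration for full growth arrest is given as TGI.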 Where a SMILES comes first, the peptide text is derived from it. [ ]: non-standard residue; d: D form. The star is where a group is joined. ξ: configuration not given here. ξPhe(4-NO2) = NC(Cc1ccc([N+](=O)[O-])cc1)C(=O)O; Boc = CC(C)(C)OC(=O)* A value given as a limit tells only on which side of the number the result lay.

Test systems include SNB-19 CNS; ACHN renal; HOP-92 NSCLC; KM12 colon; HS 578T breast; HCC-2998 colon; A549 NSCLC; SR leukemia; PC-3 prostate; COLO 205 colon.
What all share (test): NCI tumour cell line growth inhibition, 48 h

For the compound `CCNC(=O)CNC(=O)C(Cc1ccc([N+](=O)[O-])cc1)NC(=O)OC(C)(C)C` (stereo not drawn) (Boc-[ξPhe(4-NO2)]-Gly-NHEt), the TGI in the test with SNB-19 CNS, in the test on ACHN renal, with HOP-92 NSCLC, with KM12 colon, in the test on HS 578T breast and with HCC-2998 colon was more than 100 µM throughout. The TGI in the test on A549 NSCLC, with SR leukemia, in the test with PC-3 prostate and in the test on COLO 205 colon was more than 100 µM throughout.

`O=C1CSC(c2cccc(Oc3ccccc3)c2)N1c1cccc(Cl)c1Cl` (stereo not drawn): the TGI in the test on SNB-19 CNS is more than 100 µM; in the test with ACHN renal it was 47.9 µM; in the test with HOP-92 NSCLC, 45.8 µM; in the test with KM12 colon, more than 100 µM; with HS 578T breast, 84.7 µM; with HCC-2998 colon, 26.2 µM. The TGI in the test with A549 NSCLC was more than 100 µM; with SR leukemia it was 53.8 µM; in the test with PC-3 prostate, 95.3 µM; in the test with COLO 205 colon, 44.1 µM.

For `ClCCc1ccccc1CC1=NCCc2ccccc21`, the TGI with SNB-19 CNS is more than 100 µM; with ACHN renal, more than 100 µM; in the test with HOP-92 NSCLC, more than 100 µM; in the test on KM12 colon, more than 100 µM; in the test on HS 578T breast, more than 100 µM; in the test on HCC-2998 colon, 62.5 µM. For the same compound, the TGI was more than 100 µM in the test on A549 NSCLC, more than 100 µM in the test with SR leukemia, more than 100 µM in the test on PC-3 prostate and 63.5 µM in the test with COLO 205 colon.

Turning to `COc1c2occc2cc2ccc(=O)oc12`, the TGI in the test on SNB-19 CNS, in the test with ACHN renal, in the test with HOP-92 NSCLC, with KM12 colon, in the test with HS 578T breast and in the test with HCC-2998 colon was more than 100 µM in each case. Besides, the TGI with A549 NSCLC, with SR leukemia, with PC-3 prostate and with COLO 205 colon was more than 100 µM throughout. In addition, the GI50 in the test on KM12 colon and with HS 578T breast was more than 100 µM throughout.

For `COc1ccc(S(=O)(=O)Nc2ccc(-c3csc(N4C(=O)/C(=C/c5cccs5)N=C4c4ccccc4)n3)cc2)cc1Cl`, the TGI in the test on SNB-19 CNS was more than 100 µM; in the test with ACHN renal it was more than 100 µM; in the test with HOP-92 NSCLC, 72 µM; in the test on KM12 colon, more than 100 µM; in the test on HS 578T breast it was 93.3 µM; in the test with HCC-2998 colon it was more than 100 µM. The TGI with A549 NSCLC, with SR leukemia, in the test on PC-3 prostate and with COLO 205 colon was more than 100 µM in each case.

Turning to `COC(=O)[C@]1(Cc2ccc3ccccc3c2)CCCCCCN1C(=O)c1ccccc1`, the TGI in the test on SNB-19 CNS was more than 81.8 µM; in the test with ACHN renal it was more than 73.2 µM; in the test on HOP-92 NSCLC, more than 52.9 µM; in the test with KM12 colon, more than 49 µM; in the test on HS 578T breast, more than 56.1 µM; in the test with HCC-2998 colon, more than 49 µM. Also, the TGI with A549 NSCLC was more than 100 µM; in the test on SR leukemia, more than 100 µM; with PC-3 prostate, more than 45.7 µM; in the test with COLO 205 colon it was 24.5 µM.

With `Cc1cc(=O)n2nc(CSc3n[nH]c(=S)s3)sc2n1`, the TGI with SNB-19 CNS, in the test with ACHN renal, in the test on HOP-92 NSCLC, in the test on KM12 colon, with HS 578T breast and with HCC-2998 colon was more than 100 µM in each case. Besides, the TGI in the test on A549 NSCLC, with SR leukemia, in the test on PC-3 prostate and with COLO 205 colon was more than 100 µM in each case.

With `Nc1ncnc2c1cnn2COCC(O)CO` (stereo not drawn), the TGI in the test with SNB-19 CNS, with ACHN renal, in the test on HOP-92 NSCLC, in the test with KM12 colon, with HS 578T breast and with HCC-2998 colon was more than 100 µM throughout. In addition, the TGI in the test on A549 NSCLC, in the test on SR leukemia, with PC-3 prostate and with COLO 205 colon was more than 100 µM each time.

Regarding `CC(C)C[C@H](NC(=O)CCc1cccc2ccccc12)B(O)O`, the TGI with SNB-19 CNS is more than 100 µM; in the test on ACHN renal, more than 100 µM; in the test with HOP-92 NSCLC, 7.37 µM; with KM12 colon, 5.4 µM; in the test with HS 578T breast it was 7.4 µM; with HCC-2998 colon, 2.62 µM. In addition, the TGI in the test with A549 NSCLC stood at 49.7 µM; in the test on SR leukemia it was 2.2 µM; in the test on PC-3 prostate it was 29.3 µM; in the test on COLO 205 colon, 36.3 µM.

Consider `COC(=O)C1SC[C@H]2C(=O)N(c3ccccc3)C(=O)N12` (stereo partly drawn), for which the TGI in the test with SNB-19 CNS, in the test with ACHN renal, in the test on HOP-92 NSCLC, with KM12 colon, in the test on HS 578T breast and with HCC-2998 colon was more than 100 µM throughout. Also, the TGI in the test with A549 NSCLC, in the test on SR leukemia, in the test on PC-3 prostate and with COLO 205 colon was more than 100 µM each time.

With `O=C(N[C@@H](Cc1ccccc1)B(O)O)[C@H](Cc1cccc2ccccc12)NC(=O)N1CCOCC1`, the TGI with SNB-19 CNS is 0.671 µM; in the test on ACHN renal, 24.6 µM; in the test with HOP-92 NSCLC, 0.00744 µM; in the test on KM12 colon, 0.0041 µM and 0.0149 µM; with HS 578T breast, 0.213 µM; in the test with HCC-2998 colon, 0.00339 µM. For the same compound, the TGI in the test with A549 NSCLC was 0.47 µM; in the test on SR leukemia, 0.0126 µM; in the test with PC-3 prostate it was 0.106 µM and 0.134 µM; in the test with COLO 205 colon, 0.197 µM and 0.233 µM. The GI50 with A549 NSCLC was 0.0123 µM.

Turning to `N#Cc1c2ccc([N+](=O)[O-])cc2c(=O)n2c1sc1ccccc12`, the TGI with SNB-19 CNS is 36.9 µM; in the test on ACHN renal, more than 100 µM; in the test with HOP-92 NSCLC, 41.3 µM; with KM12 colon, more than 100 µM; in the test with HS 578T breast, more than 100 µM; in the test on HCC-2998 colon, 38.7 µM. In addition, the TGI in the test on A549 NSCLC was 28.5 µM; in the test with SR leukemia, 24.4 µM; with PC-3 prostate it was 43.9 µM; in the test on COLO 205 colon it was 37.7 µM.
